Results taken from patent US20250002467A1, “DESIGN, SYNTHESIS AND MECHANISMS OF ANTICANCER ACTIVITY OF NEW ACETYLATED 5-AMINOSALICYLATE-THIAZOLINONE HYBRID DERIVATIVES” (University of Sharjah, priority 2023, published 2025).
Entries after “also recorded” stand apart in the source; their conditions may differ.

Columns and labels:
[1] = system: MCF7, HCT-116, HeLa and A549 cells; assay: Western blot protein expression analysis; type: cell-based; conditions: for cyclin E, cyclin D1 and CDK2 levels: G1-S phase transition proteins; for phospho-Rb (ser249): HCT116 and HeLa cells; for level of p-H2Ax (y-H2Ax): MCF7, HeLa, HCT116, and A549 cells, 24 h; for cleavage of caspase-8: all cell lines; for ATR/Chk1 signaling: four cell lines
Experimental: The protein expression analysis was done after treatment with […] of HH32 and HH33 compounds for 24 hours by western blot. Cell lysates were prepared using lysis buffer containing 20% SDS, glycerol, 1M Tris (pH 6.8) and supplemented with protease and phosphatase inhibitors (Sigma Aldrich, Missouri, USA). The proteins were separated by SDS-PAGE and transblotted into nitrocellulose membrane (Biorad, Hercules, CA, USA). Membrane were incubated overnight at 4° C. with the following primary antibodies: 7H2AX, H2Ax, p21, CDC2, CDC25c, cyclin B, c-Myc, Bid, ATM, p-ATM, ATR, p-ATR, Chk1, p-Chk1, Chk2, p-Chk2, caspase 9, caspase 8, pRb (Ser807/811) (Cell Signaling Technology, Massachusetts, USA), p53, cyclin A, cyclin E, cyclin D1, CDK2, Rb, pRb (Ser249) (Santa Cruz Biotech, Texas, USA) and β-actin (Sigma Aldrich, Missouri, USA). Membranes were then incubated with respective mouse/rabbit secondary antibody (Cell Signaling Technology, Massachusetts, USA) for 1 hour at room temperature and detected by enhanced chemiluminescence (ECL) (Biorad, Hercules, CA, USA) method using Chemi Doc imaging system (Biorad, Hercules, CA, USA). The protein bands were quantified using Image lab™ software (Biorad, Hercules, CA, USA).

[2] = system: MCF7; assay: SRB cytotoxicity assay, MCF7; type: cell-based; conditions: for IC50: MCF7, SRB, mean ± SEM
Text: (§1) Eight different cancer cell lines were acquired from the Radiobiology and Experimental Radio Oncology lab, University Medical Center, Hamburg University, Hamburg, Germany. MCF7, MDA-MB-231 (breast cancer), and A549 (lung cancer) cells were maintained in RPMI medium while HCT116 (colon cancer), HepG2 (liver cancer), U87, U373 (glioblastoma), and HeLa (cervical cancer) were maintained in DMEM supplemented with 10% FBS and 1% penicillin/streptomycin (Sigma Aldrich, Missouri, USA). Normal human fibroblast (F180) cells were maintained in DMEM supplemented with 15% FBS. Normal human mammary epithelial cell line (HME1) were maintained in DMEM/F-12 medium supplemented with 10% FBS. All incubations were done at 37° C. in a humidified atmosphere of 5% CO2. All cell lines were authenticated by short tandem repeat (STR) profiling. The CDK4 knockout cells (provided by Dr. Samrein Ahmed, University of Sharjah, United Arab Emirates) were generated by CRISPR-CAS9 technology and were maintained in DMEM supplemented with 10% FBS.
(§2) The cytotoxic effects of HH32 and HH33 compounds were evaluated at various concentrations ranging from 0.0001 to 100 μM by sulphrhodamine-B (SRB) assay as described previously. The anti-proliferative activity was expressed as growth inhibitory concentration (IC50) values, which were calculated by the sigmoidal dose-response curve fitting method using Graph pad prism 6 software (GraphPad Software, San Diego, CA, USA).

[3] = system: MCF7, HCT-116 and A549 cells; assay: Neutral comet assay; type: cell-based; conditions: for level of DNA damage (tail moment): 0.5 and 1 μM, 24 hours, three cell lines
Experimental: MCF7, HCT-116 and A549 cells were treated with […] of HH32 or HH33 compounds for 24 hours and control cells were treated with vehicle (DMSO). A group of cells was treated with doxorubicin as a reference drug using the same treatment conditions. Comet assay was performed in neutral condition to detect DNA double-strand breaks using comet assay kit (Trevigen Inc., Maryland, USA) according to the manufacturer's instructions. The tail moment, which reflect the amount of DNA damage in each nucleus, was calculated in at least 50 cells using OpenComet software.

[4] = system: MCF7 cells; assay: Metabolic analysis by GC-MS; type: cell-based
Experimental: The release of different metabolites following HH32 and HH33 treatment on MCF7 cells was detected using Gas Chromatography-Mass Spectrometry (GC-MS) (Shimadzu, Kyoto, Japan) as was described previously. GC-MS analysis was performed using a QP2010 gas chromatography-mass spectrometer (GC-2010 coupled with a GC-MS QP-2010 Ultra) equipped with an auto-sampler (AOC-20i+s) from Shimadzu (Tokyo, Japan), using Rtx-5 ms column (30 m length×0.25 mm inner diameter x 0.25 μm film thickness; Restek, Bellefonte, PA, USA). Helium (99.9% purity) was used as the carrier gas with the column flow rate of 1 mL/min. Data collection and analysis were performed using MSD Enhanced Chemstation software (Shimadzu, Kyoto, Japan). GC total ion chromatograms (TIC) and fragmentation patterns of the compound were identified using the NIST/EPA/NIH Mass Spectral Library (NIST 14).
Preprocessing and data analysis were performed using an in-house R script. Only compounds registered in Human Metabolome Database (HMDB 4.0) were considered for further analysis. Compounds with more than 70% of missing values were considered unreliable and therefore excluded. Probabilistic Quotient Normalization was used to normalize data due to dilution effects in the extraction procedure. Missing metabolite measurements were imputed using the k-nearest neighbor algorithm with k—3. […] To account for multiple testing, a false discovery rate (FDR) of <15% was applied to reduce the identification of false positives. FDRs were calculated using the q conversion algorithm in multiple comparisons. Principal component analysis (PCA) was used to visualize the metabolomic data. Data were mean-centered and scaled to unit variance before PCA.

[5] = system: MDA-MB-231; assay: SRB cytotoxicity assay, MDA-MB-231; type: cell-based
Text: as §1, §2

[6] = system: A549; assay: SRB cytotoxicity assay, A549; type: cell-based; conditions: for IC50: A549, SRB, mean ± SEM
Text: as §1, §2

[7] = system: F-180; assay: SRB cytotoxicity assay, normal fibroblast F-180; type: cell-based, human; conditions: F-180 normal fibroblast, mean ± SEM
Text: as §1, §2

[8] = system: U87; assay: SRB cytotoxicity assay, U87; type: cell-based; conditions: for IC50: U87, SRB, mean ± SEM
Text: as §1, §2

SMILES | cyclin E, cyclin D1 and CDK2 levels [1] | phospho-Rb (ser249) [1] | phospho-Rb (ser807/811) ([1]; HCT-116) | expression of p53 and p21 ([1]; HeLa cells) | phospho-Rb (ser807/811) ([1]; HeLa cells) | expression of p53 and p21 ([1]; MCF7, HCT-116 and A549 cells) | phosphorylation status of ATM and Chk2 ([1]; MCF7, HCT-116 and A549 cells) | level of p-H2Ax (y-H2Ax) ([1]; 0.5 and 1 μM) | cleavage of caspase-8 [1] | ATR/Chk1 signaling [1] | Selectivity index ([2]; F180 versus MCF7) | Selectivity index ([2]; HME1 versus MCF7) | IC50 [2] [µM] | level of DNA damage (tail moment) [3] | Selectivity index ([5]; F180 versus MDA-MB-231) | Selectivity index ([5]; HME1 versus MDA-MB-231) | IC50 [6] [µM] | Selectivity index ([6]; F180 versus A549) | Selectivity index ([6]; HME1 versus A549) | IC50 [7] [µM] | further results
COC(=O)c1cc(NC2=NC(=O)C(=Cc3ccc(C)cc3)S2)ccc1OC(C)=O [HH32, Methyl 2-acetoxy-5-[(5-(4-methylbenzylidene)-4 (H)-oxo-1,3-thiazol-2-yl)-amino]benzoate] | slightly changed | increased | reduced | reduced | increased | substantially increased | increased significantly | marked elevation | cleaved | activate | 3.88 | 7.8 | 3.44 ± 0.32 | increased | 0.87 | 1.7 | 6.17 ± 0.38 | 2.16 | 4.3 | 13.3 ± 0.38 | total c-Myc protein level ([1]; 1 μM, MCF7 and HCT-116 cells): downregulation; phosphorylation status of ATM and Chk2 ([1]; HeLa cells): increased significantly; Guanosine levels ([4]; vs untreated cells): altered; IC50 ([5]; MDA-MB-231, SRB, mean ± SEM): 15.35 ± 0.08 µM; Selectivity index ([8]; F180 versus U87): 2.04; Selectivity index ([8]; HME1 versus U87): 4.1; IC50 [8]: 6.53 ± 0.09 µM
COC(=O)c1cc(NC2=NC(=O)C(=Cc3ccc(N(C)C)cc3)S2)ccc1OC(C)=O [HH33, Methyl 2-acetoxy-5-[(5-(4-dimethylaminobenzylidene)-4 (H)-oxo-1,3-thiazol-2-yl)-amino]benzoate] | slightly changed | increased | reduced | reduced | increased | substantially increased | increased significantly | marked elevation | cleaved | activate | 4.89 | 11.4 | 0.81 ± 0.34 | increased | 0.99 | 2.3 | 2.93 ± 0.83 | 1.3 | 3.2 | 3.91 ± 0.43 | total c-Myc protein level ([1]; 0.5 and 1 μM, four cancer cell lines): decreased; cleavage of caspase-9 ([1]; MCF7, HeLa and A549 cells): increase; reducing expression of G2/M progression proteins (cyclin A, cyclin B, CDC25c and CDC2/CDK1) ([1]; compared with HH32): more effective than HH32; level of DNA double strand breaks compared with doxorubicin ([3]; 1 μM, same concentration, three tested cell lines): higher than doxorubicin; comet length compared with HH32-treated cells ([3]; MCF7 and HCT-116 cells): markedly higher; increase of palmitic acid [4]: 20%; reduction of 1-Monopalmitin level ([4]; compared to control cells): 4.5 fold; level of 1-Monopalmitin ([4]; vs untreated cells): significant decreased; level of Adenosine ([4]; vs untreated cells): significant decreased; also recorded: significant reduction; level of Decanoic Acid ([4]; vs untreated cells): significant decreased; also recorded: reduction; Selectivity index ([8]; F180 versus U87): 3.8; Selectivity index ([8]; HME1 versus U87): 9; IC50 [8]: 1.03 ± 0.11 µM
